Test results from ChEMBL document CHEMBL3507680, “University of Dundee, Gates Library screen for HepG2 cell viability”.

Assay: Human HepG2 cell viability assay in 384 well format
Assay type: toxicity, cell-based
Set-up: dose 125 nL, time 70.5 hour; cytotoxicity at 70.5 h: concentration not given beside the values
Details: HepG2 cells, read-out: Inhibition

| Structure (SMILES) | cytotoxicity at 70.5 h |
| --- | --- |
| O=C(NCCN1CCC(c2cccs2)CC1)c1ccccc1C(F)(F)F | 1.14% |
| O=C(Nc1nc2c(s1)CN(S(=O)(=O)C1CC1)CC2)c1c(F)cccc1F | 3.16% |
| Cc1cccc(CS(=O)(=O)NCC(O)Cc2ccccc2)c1 (stereo not given) | 0.192% |
| COc1ccccc1OCC(=O)NCC(O)(c1ccccc1)C1CC1 (stereo not given) | -3.14% |
| CC(=O)N1CCC(Oc2ccc(Cl)cn2)CC1 | 0.563% |
| CS(=O)(=O)N1CCC(Oc2cnccn2)CC1 | -5.72% |
| CN(C)CC1CSCCCN1C(=O)c1ccc(=O)[nH]c1 (stereo not given) | 10.8% |
| CN(C)CC1CSCCCN1C(=O)c1ccc(C(C)(C)C)cc1 (stereo not given) | -0.949% |
| COCCN(Cc1ccoc1)C(=O)c1c(F)cccc1Cl | -0.424% |
| Cc1nsc(C(=O)N2CCc3ccccc3C2)n1 | 28.2% |
| CC(C)(C)C(=O)NCCn1ccc(-c2ccncc2)n1 | -4.99% |
| Cn1cnnc1S(=O)(=O)C1CCN(S(=O)(=O)c2c(Cl)cccc2Cl)CC1 | -8.23% |
| CNC(=O)CS(=O)(=O)C1CCN(S(=O)(=O)C2CC2)CC1 | -3.01% |
| CNC(=O)CS(=O)(=O)C1CCN(S(=O)(=O)c2ccccc2Br)CC1 | -8.95% |
| CC(C)CNc1nc(C(=O)/N=c2\[nH]nc(C(C)(C)C)s2)cs1 | 4.48% |
| CC(C)n1[nH]c(=O)c2c1NC(=O)CC2c1cccnc1 (stereo not given) | 9.01% |
| CCOC(=O)N1CCN(C(=O)c2sc(-c3ccc(F)cc3)nc2C)CC1 | -8.29% |
| Cc1nc(-c2ccccc2F)sc1C(=O)N1CCN(C)CC1 | -10.6% |
| O=C(NCCc1ccccc1)C1CCCN(c2ccc3nncn3n2)C1 (stereo not given) | -9.33% |
| CCCNC(=O)c1sc(Nc2ccc(Cl)cn2)nc1C | -5% |
| COC(=O)Cn1cccc(S(=O)(=O)N2CCC(C)CC2)c1=O | 41% |
| CC1CCN(S(=O)(=O)c2cccn(CC(=O)N3CCOCC3)c2=O)CC1 | -16% |
| O=C(Cn1cc(C(=O)O)ccc1=O)NCc1ccc(F)c(Cl)c1 | -13.4% |

| Structure (SMILES) | cytotoxicity at 70.5 h |
| --- | --- |
| CC(C)(C)C(=O)Cn1nc(-c2ccccc2F)ccc1=O | -21.7% |
| O=C1CC(c2ccccc2)c2c(n3ccsc3nc2=O)N1 (stereo not given) | -20% |
| COc1ccc(C2SCC(=O)Nc3ccsc32)cc1 (stereo not given) | -3.24% |
| CC(C)c1nnc2ccc(N3CCC(C(=O)Nc4nccs4)CC3)nn12 | 10.7% |
| O=C(Cn1nc2c(cc1=O)CSCC2)NC(Cc1ccccc1)C(=O)O (stereo not given) | 23% |
| O=C(O)c1cc2c(nc1O)CC(c1cccc(Cl)c1)CC2=O (stereo not given) | -2.93% |
| COc1cccc(-c2nc(C)c(C(=O)NC(CO)CCSC)s2)c1 (stereo not given) | -25% |
| O=C(c1nc(-c2ccc3cc[nH]c3c2)no1)N1CCCC1 | -5.08% |
| CC[C@H](C)[C@H](NC(=O)Cc1csc(-c2cccc(Cl)c2)n1)C(=O)O | -27.4% |
| CC(C)N1CCn2c(nc3cc(C(N)=O)ccc32)C1 | -16.5% |
| Cc1ccc2c(ccn2CCC(=O)N2CCC(C(N)=O)CC2)c1 | -21.3% |
| Cc1oc(-c2nc(C#N)c(N(C)C)o2)cc1S(=O)(=O)N1CCCC1 | -21.5% |
| CC1CCc2nc(O)c(C(=O)NCc3cccc(F)c3)cc2C1 (stereo not given) | -3.12% |
| O=c1c2cnc(N3CCCCC3)nc2ccn1-c1ccccc1 | 19% |
| O=c1[nH]c2c(c(=O)n1C1CCCCC1)CCC2NCCc1ccccc1 (stereo not given) | -17.4% |
| CC(C)NC(=O)c1sccc1N(C)S(=O)(=O)c1ccc(Cl)cc1 | -8.11% |
| Cc1cc2nc(SCC(=O)N3CCOCC3)n(CC(C)C)c(=O)c2[nH]1 | -7.46% |
| O=c1[nH]c2nc(N3CCSCC3)ncc2c(=O)n1-c1cccc(F)c1 | -0.348% |
| CN1CCN(c2ncc3c(=O)n(-c4cccc(F)c4)c(=O)[nH]c3n2)CC1 | -12.6% |
| Cc1noc(C2CCCCN2C(=O)NC2CCCC2)n1 (stereo not given) | -7.87% |
| c1cc(OCc2ccc3c(c2)OCCO3)ccc1CNC1CC1 | 22.8% |
| Cc1cccc(CN2CC3(CCN(C4CCOC4)CC3)OCC2=O)n1 (stereo not given) | 0.761% |
